Legend:
HER2 = test: Western blotting of phosphorylated HER2 in BT-474 cells; type: cell-based, human
Method: Human HER2-expressing human breast cancer cell line BT-474 (purchased from American Tissue Culture Collection (ATCC)) was seeded into a 24-multiwell plate (BT-474: 1.2 x 10^5 cells/well), and cultured overnight in a carbon dioxide gas incubator (5% CO2, 37°C). A 4-fold dilution series of a mitochondrial respiratory chain complex inhibiting compound (complex I: rotenone, complex III: antimycin, complex V: oligomycin: Wako Pure Chemical Industries) was added starting from a final concentration of 1 µmol/L in 5 steps while continuing culture. After 2 hours, the broth was removed, and the cells were lysed with an SDS sample buffer (200 µL). Western blotting analysis was performed as follows. Specifically, this cell lysate (8 µL) was separated by an SDS-PAGE method (gel concentration: 7.5-15%) (Analytical Biochemistry, No. 166, pp. 368-379, 1987), and transferred to a nitrocellulose membrane (BioRad). Then, an antibody specific to phosphorylated HER2 (Cell signaling technology, Code# 2244), an anti-phosphorylated Akt antibody specific to downstream antiapoptotic signal transducing molecule Akt (Cell signaling technology, Code# 9271) and an anti-phosphorylated MAPK antibody specific to downstream proliferation signal transducing molecule MAPK (Cell signaling technology, Code# 9101) were used to detect the antibody with an ECL system (Amersham) to quantify the amount of phosphorylated protein by an image analysis.
Human HER2-expressing human cancer cell line BT-474 (purchased from ATCC) was seeded into a 24-multiwell plate (1.2 x 10^5 cells/well) and cultured overnight in a carbon dioxide gas incubator (20% O2, 5% CO2, 37°C). A 3-fold dilution series of metformin that activates AMPK (The Journal of Biological Chemistry, Vol. 279, No. 42, pp. 43940-43951, 2004) was added starting from a final concentration of 15 mmol/L in 5 steps while continuing culture. Two hours later, the broth was removed and the cells were lysed with an SDS sample buffer (200 µL). This cell lysate (8 µL) was separated by an SDS-PAGE method (gel concentration: 7.5-15%) (Analytical Biochemistry, No. 166, pp. 368-379, 1987). Then, western blotting analysis was performed in the same manner as in Example 1 to quantify phosphorylated HER2, phosphorylated Akt and phosphorylated MAPK.
Human HER2-expressing human breast cancer cell line BT-474 (purchased from American Tissue Culture Collection (ATCC)) was seeded into a 24-multiwell plate (BT-474: 1.2 x 10^5 cells/well), and cultured overnight in a carbon dioxide gas incubator (5% CO2, 37°C). Mitochondrial respiratory chain complex 1-inhibiting compound rotenone (Wako Pure Chemical Industries) was added in 5 steps at final concentrations of 1, 0.333, 0.111, 0.033 and 0.011 µmol/L while continuing culture. Two hours later, the broth was removed and the cells were lysed with an SDS sample buffer (200 µL). Then, this cell lysate was used to perform western blotting analysis. Specifically, this cell lysate (8 µL) was separated by an SDS-PAGE method (gel concentration: 7.5-15%) (Analytical Biochemistry, No. 166, pp. 368-379, 1987) and transferred to a nitrocellulose membrane (BioRad). Then, an antibody specific to phosphorylated HER2 (Cell signaling technology, Code# 2244), an AMPK antibody specific to AMPK (Cell signaling technology, Code# 2535) and an anti-phosphorylated AMPK antibody specific to phosphorylated AMPK (Cell signaling technology, Code# 2532) were used to detect the antibody by chemiluminescent detection with an ECL system (Amersham) to quantify an amount of phosphorylated protein with LAS-1000 plus image analysis device (FUJIFILM).
Human HER2-expressing human breast cancer cell line BT-474 (purchased from American Tissue Culture Collection (ATCC)) was seeded into a 24-multiwell plate (BT-474: 1.2 x 10^5 cells/well) and cultured overnight in a carbon dioxide gas incubator (5% CO2, 37°C). […]

[1] = system: A549 non-small cell lung cancer cell; test: Viable cell count using Cell Counting Kit-F; type: cell-based, human; conditions: HER2-expressing cancer, five days of culture
Method: (§1) BT-474 breast cancer cell, MDA-MB-453 breast cancer cell, A549 non-small cell lung cancer cell and LNCaP prostate cancer cell were used as human HER2-expressing cells while MDA-MB-231 breast cancer cell and A498 kidney cancer cell (all purchased from ATCC) were used as HER2-nonexpressing cells. Each of the cells used had been seeded into a 96-plate at 500cells/150 µL/well and cultured overnight. Each of the compounds, i.e., antimycin (final concentrations: 1, 0.1, 0.01 and 0.001 µmol/L), 2,4-dinitrophenol (final concentrations: 0.6, 0.2, 0.06 and 0.02 mmol/L), metformin (final concentrations: 25, 5, 1 and 0.2 mmol/L) and AICAR (final concentrations: 25, 5, 1 and 0.2 mmol/L) was diluted with a medium and added for 50 µL/well at a time to the final concentrations mentioned above. Following five days of culture at 37°C in 5% CO2, the cells were counted using Cell Counting Kit-F (Dojindo Laboratories).
(§2) Viable cell count using Cell Counting Kit-F was carried out by the following method according to the attached instruction. The supernatant was removed from the 96-well plate after five days of culture. Cell Counting Kit-F diluted 1000-fold with an RPMI medium (phenol red-free, serum-free) was added for 100 µL/well at a time. After 30 minutes of reaction at room temperature, fluorescence (excitation wavelength; 480 nm, fluorescent wavelength; 530 nm) was determined with a fluorescent plate reader.
(§3) From the determination results, percentage of the fluorescence level in the wells added with the compound was determined assuming that the fluorescence level in the wells without the addition of the compound (control) is 100%, and the remaining cellular quantity was determined in % with respect to that of the control.

DU145 = test: Viable cell count using Cell Counting Kit-F; type: cell-based; conditions: HER2-nonexpressing cancer, five days of culture
A498 kidney cancer cell = test: Viable cell count using Cell Counting Kit-F; type: cell-based; conditions: A498; HER2-nonexpressing cancer; five days of culture
Method: as §1, §2, §3
(§4) BT-474 breast cancer cell, MDA-MB-453 breast cancer cell and LNCaP prostate cancer cell were used as human HER2-expressing cells while MDA-MB-231 breast cancer cell and A498 kidney cancer cell (all purchased from ATCC) were used as HER2-nonexpressing cells. Each of the cells used had been seeded into a 96-well plate at 500 cells/150 µL/well and cultured overnight. Troglitazone (final concentrations: 25, 6.25 and 1.56 µmol/L) was diluted with a medium, and added for 50 µL/well at a time to the final concentrations mentioned above. Following five days of culture at 37°C in 5% CO2, the cells were counted using Cell Counting Kit-F (Dojindo Laboratories).
as §3, with “troglitazone” for “the compound”

[2] = system: MDA-MB-231 breast cancer cell; test: Viable cell count using Cell Counting Kit-F; type: cell-based; conditions: MB231; HER2-nonexpressing cancer; five days of culture
Method: as §1, §2, §3, §4
as §3, with “troglitazone” for “the compound”

[3] = Example 7, two hours, antimycin 1-0.01 nmol/L, oligomycin 100-1 ng/mL, 2,4-dinitrophenol 300-3 µmol/L

Row | Compound | HER2 phosphorylation (HER2; [3]) | minimum concentrations for inhibiting cell proliferation for 50% or more [1] | minimum concentrations for inhibiting cell proliferation for 50% or more (DU145) | minimum concentrations for inhibiting cell proliferation for 50% or more (A498 kidney cancer cell) | minimum concentrations for inhibiting cell proliferation for 50% or more [2] | HER2 phosphorylation (HER2; Example 2, 4-fold dilution series from 1 µmol/L in 5 steps, 2 hours)
1 | O=[N+]([O-])c1ccc(O)c([N+](=O)[O-])c1 [2,4-dinitrophenol] | decreased dose-dependently | <0.02 mmol/L | 0.067 mmol/L | 0.2 mmol/L | 0.2 mmol/L | 
2 | antimycin | decreased dose-dependently | 1e-05 mmol/L | >0.0001 mmol/L | >0.0001 mmol/L | 1e-05 mmol/L | suppression of HER2 phosphorylation was confirmed

Reference: EP1902732A1, “PROPHYLACTIC/THERAPEUTIC AGENT FOR HER2-EXPRESSING CANCER” (Takeda Pharmaceutical Company Limited, priority 2005, dated 2006)
